The text below walks through data of article PMC6862250, “Lipophilicity Determination of Quaternary (Fluoro)Quinolones by Chromatographic and Theoretical Approaches” (International Journal of Molecular Sciences, 2019).

What all share (type): physicochemical
Series [1] in a line: RP-TLC lipophilicity, silica gel C8, methanol-water. Conditions: for C 0: RP-TLC silica gel C8, C0 = −RM^0/b; for PC1: RP-TLC silica gel C8, first principal component of RM values, contains 83.57% of information; for mRM: RP-TLC silica gel C8, mean value of RM; for R M ^0: RP-TLC silica gel C8, methanol-water 30 to 70% (v/v), intercept of Soczewiński–Wachtmeister equation; for b: RP-TLC silica gel C8, slope of Soczewiński–Wachtmeister equation. How it is done:
(§1) The ready-to-use TLC glass plates covered by octadecyl(C18)- and octyl(C8)-modified TLC silica layers were purchased from Merck (Darmstadt, Germany). Stock solutions (5 µL) of the analytes were spotted manually on the plates with the use of a micropipette from Brand (Wertheim, Germany). The mobile phases were prepared by mixing appropriate volumes of pure organic solvents and water (in step gradient by 10% (v/v)), in the following proportions: (a) methanol–water ranging from 30 to 70% (v/v), in the case of C8-bonded silica gel stationary phase; and (b) methanol–water ranging from 40 to 70% (v/v), in the case of C18-bonded silica gel stationary phase.
(§2) Before analysis, the chromatographic chamber (Twin Trough Chambers from CAMAG Philadelphia, USA) was saturated for 20 min. All TLC experiments were performed at room temperature (22 ± 2 °C). Chromatograms were developed using the ascending technique to a distance of 8 cm. The investigated substances were visualized under UV light at λ = 366 nm by CAMAG UV Lamp 4 and the Viewing Box 4 (Philadelphia, USA). […] The obtained retardation factors (RF) were collected in the Supplementary data sheets. The retention parameter, RM, was calculated for each compound according to the Bate-Smith and Westall formula: (7) RM=log(1/RF−1) and listed in Table S2. Next, the Soczewiński–Wachtmeister’s equation: RM = RM^0 + bC(8) was used in order to determine the basic lipophilic RP-TLC parameter RM^0 as well as commonly used hydrophobic constants m. Soczewiński–Wachtmeister’s equation presented a linear relationship between concentration of the organic solvent in mobile phase (C) and RM value. Moreover, mean value of RM was used for lipophilicity assessments.
(§3) Furthermore, C0 RP-TLC lipophilicity parameter, introduced by Bieganowska, has been calculated according to the formula:(9) C0=−RM^0/b.
(§4) The C0 parameter corresponds to the parameter φ0, previously proposed for the HPLC. This parameter relates to the concentration of the organic component in the mobile phase for which the distribution of the analyzed substance between the mobile and stationary phase is equal (1:1).
(§5) Also, the principal component analysis (PCA) was applied in order to extract information regarding the lipophilicity of solutes and formulate them as the first principal component (PC1). Calculation data matrixes included RM values of solutes for each modifier concentration in the mobile phase.

The nature of series [2]: RP-TLC lipophilicity, silica gel C18, methanol-water. The settings on record: for C 0: RP-TLC silica gel C18, C0 = −RM^0/b; for PC1: RP-TLC silica gel C18, first principal component of RM values, contains 86.92% of information; for mRM: RP-TLC silica gel C18, mean value of RM; for R M ^0: RP-TLC silica gel C18, methanol-water 40 to 70% (v/v), intercept of Soczewiński–Wachtmeister equation; for b: RP-TLC silica gel C18, slope of Soczewiński–Wachtmeister equation. As to the method:
as §1, §2, §3, §4, §5

The nature of series [3]: MEKC lipophilicity (SDS micelles, pH 7.4). The settings on record: 50 mM SDS, HEPES/TRIS buffer pH 7.4, 25 °C. How it is done:
All MEKC experiments were carried out with a P/ACE MDQ plus system (Sciex, Framingham, MA, USA) equipped with photodiode array detector (PDA) and controlled by 32 Karat software (version 10.2). The uncoated fused silica capillaries (50 µm i.d., Polymicro Technologies, West Yorkshire, UK) of 60 cm total length and 50.2 cm effective length were used. Prior to analysis, the capillary was rinsed with 0.1 M NaOH for 30 min, ultrapure water for 10 min, and background electrolyte (BGE) for 30 min. After each analysis, the capillary was conditioned with BGE for 2 min. The applied pressure for all rinsing operations was 345 kPa. The analytes were dissolved in BGE at concentration of 100 µg/mL with addition of quinine (micelles marker). As electroosmotic flow (EOF) marker, DMSO was used. The samples were hydrodynamically injected at 35 kPa for 5 s. The separations were performed by applying voltage of 20 kV with positive polarity and constant temperatures at 25 ± 0.1 °C. The BGE consisted of aqueous solution of 50 mM SDS and 120 mM HEPES /100 mM TRIS buffer of pH 7.4. The BGE was prepared each working day by dilution of stock solution. Detection was carried out at 200 and 280 nm with 8 Hz probing frequency. The logarithm of retention factor logk was calculated according to the equation introduced by Terabe and co-workers:(10) logkMEKC=log(tR−tEOF/tEOF(1−tR/tMC)) The established logk parameters are summarized in Table 2.

Consider `CCn1cc(C(=O)O)c(=O)c2cc(F)c(N3CC[N+]4(CC3)CN3C(C)=CC(C)=C(C(=O)O)C3=N4)cc21.[Cl-]` [Compound 12], for which, in series [1], the “C 0” value came to 1.00, the PC1 was −0.38, the mRM is reported as 0.82 and the “R M ^0” value was 1.63. Also, in series [1], the b is on record as −1.63. Moreover, in series [2], the “C 0” value is recorded as 1.00, the PC1 was determined as 1.97, the mRM was determined as 0.78 and the “R M ^0” value was 1.75. Further, in series [2], the b was −1.75. Also, the logk in series [3] is −0.272.

With `COc1c(N2CC[N+]3(CN4C(C)=CC(C)=C(C(=O)O)C4=N3)C(C)C2)c(F)cc2c(=O)c(C(=O)O)cn(C3CC3)c12.[Cl-]` (stereo not shown) [Compound 13], in series [1], the “C 0” value is 0.92, the PC1 was −0.64, the mRM stood at 0.83 and the “R M ^0” value is recorded as 1.82. Further, the b in series [1] is recorded as −1.97. Besides, in series [2], the “C 0” value came out at 0.88, the PC1 was 1.74, the mRM was determined as 0.82 and the “R M ^0” value is 2.18. In series [2], the b is listed as −2.47. The molecule further yielded a logk in series [3] of −0.408.

Take `CC1=CC(C)=C(C(=O)O)C2=N[N+]3(CN12)C(C)CN(c1c(F)c(N)c2c(=O)c(C(=O)O)cn(C4CC4)c2c1F)CC3C.[Cl-]` (stereo not shown) [Compound 14]: in series [1], the “C 0” value is on record as 0.86, the PC1 is given as −1.79, the mRM is recorded as 0.96 and the “R M ^0” value is listed as 2.29. In addition, in series [1], the b was −2.66. Further, in series [2], the “C 0” value is given as 0.86, the PC1 came to 1.32, the mRM is reported as 0.88 and the “R M ^0” value is listed as 2.45. The molecule also displayed a b in series [2] of −2.84. In series [3], the logk was −0.261.

For the molecule `COc1c(N2CC3CCC[N+]4(CN5C(=N4)C(C(=O)O)=Cc4ccccc45)C3C2)c(F)cc2c(=O)c(C(=O)O)cn(C3CC3)c12.[Cl-]` (stereo not shown) [Compound 15], in series [1], the “C 0” value is 0.91, the PC1 is listed as −3.52, the mRM worked out at 1.19 and the “R M ^0” value is listed as 2.63. The same molecule gave a b in series [1] of −2.88. For the same molecule, in series [2], the “C 0” value stood at 0.84, the PC1 was −1.12, the mRM is given as 1.24 and the “R M ^0” value is given as 3.56. In series [2], this molecule displayed a b of −4.21. Also, the logk in series [3] is recorded as −0.250.

As for `CCn1cc(C(=O)O)c(=O)c2cc(F)c(N3CCNC(C)C3)c(F)c21` (stereo not shown) [Compound 17, reference compound], in series [1], the “C 0” value was 1.34, the PC1 was −4.09, the mRM came out at 1.29 and the “R M ^0” value was determined as 2.06. For the same molecule, the b in series [1] is −1.54. Besides, in series [2], the “C 0” value is 1.15, the PC1 is −1.08, the mRM worked out at 1.22 and the “R M ^0” value came out at 2.33. Also, in series [2], the b is recorded as −2.03. The logk in series [3] stood at 0.077.

As for `CCn1cc(C(=O)O)c(=O)c2cc(F)c(N3CCNCC3)cc21` [Compound 18, reference compound], in series [1], the “C 0” value worked out at 1.27, the PC1 is recorded as −5.56, the mRM was 1.47 and the “R M ^0” value amounted to 2.43. In series [1], this molecule gave a b of −1.90. Further, in series [2], the “C 0” value is listed as 1.24, the PC1 is reported as −2.34, the mRM amounted to 1.40 and the “R M ^0” value worked out at 2.54. For the same molecule, in series [2], the b is given as −2.06. This molecule also gave a logk in series [3] of 0.103.

In the case of `CCn1cc(C(=O)O)c(=O)c2cnc(N3CCNCC3)nc21` [Compound 19, pipemidic acid, reference compound], in series [1], the “C 0” value is 1.65, the PC1 is listed as −3.91, the mRM worked out at 1.30 and the “R M ^0” value was 1.87. The molecule also came in with a b in series [1] of −1.13. In addition, in series [2], the “C 0” value came out at 1.35, the PC1 is recorded as −1.24, the mRM was found to be 1.24 and the “R M ^0” value is reported as 2.39. For the same molecule, the b in series [2] is listed as −1.78. This molecule also registered a logk in series [3] of −0.170. This molecule gave a logk in series [3] (listed as pipemidic acid) of −0.1697.

For `C[C@@H]1CN(c2c(F)c(N)c3c(=O)c(C(=O)O)cn(C4CC4)c3c2F)C[C@H](C)N1` [Compound 20, reference compound], in series [1], the “C 0” value is 1.07, the PC1 is −3.81, the mRM came out at 1.21 and the “R M ^0” value turned out to be 2.27. In series [1], the b is given as −2.13. In addition, in series [2], the “C 0” value is given as 0.99, the PC1 is given as −1.40, the mRM came out at 1.28 and the “R M ^0” value was determined as 2.85. The b in series [2] was −2.88. This molecule also displayed a logk in series [3] of 0.116.

Consider `COc1c(N2CCNC(C)C2)c(F)cc2c(=O)c(C(=O)O)cn(C3CC3)c12` (stereo not shown) [Compound 21, reference compound], for which, in series [1], the “C 0” value came out at 0.95, the PC1 is listed as −4.29, the mRM is 1.26 and the “R M ^0” value was determined as 2.68. The molecule further gave a b in series [1] of −2.83. In series [2], the “C 0” value is 1.06, the PC1 is on record as −1.63, the mRM was 1.31 and the “R M ^0” value was found to be 2.69. The b in series [2] was −2.55. The molecule further returned a logk in series [3] of 0.101.

As for `CCn1cc(C(=O)O)c(=O)c2cc(F)c(N3CCNCC3)nc21` [Compound 23, enoxacin, reference compound], in series [1], the “C 0” value was determined as 1.23, the PC1 was −5.38, the mRM is listed as 1.45 and the “R M ^0” value came out at 2.45. This molecule showed a b in series [1] of −2.00. Further, in series [2], the “C 0” value was 1.37, the PC1 is listed as −3.86, the mRM is given as 1.62 and the “R M ^0” value is listed as 2.70. This molecule displayed a b in series [2] of −1.98. In addition, the logk in series [3] amounted to 0.156. Further, the logk in series [3] (listed as enoxacin) was 0.1564.
